Results from US9023793B2, “Intranasal carbetocin formulations and methods for the treatment of autism” (Retrophin, Inc., priority 2006, dated 2015).
*1 amine or outer side, *2 acyl side, *3 side chain or, on linkers, in order; H or OH if unused. Where a SMILES comes first, the peptide text is derived from it. Bridges are numbered along the chain shown (N, C = ends). X1 = O=C(CCC[*:2])[*:1]

Tests used:
rats = experiment: Anxiolytic effect, elevated plus-maze assay; type: in vivo
Method: The anxiolytic effect of carbetocin and oxytocin was tested using the elevated plus-maze assay in rats as described in Holmes, A., et al., Behav. Neurosci. 115(5):1129-44, 2001. See also Sahuque, L., et al., Psychopharmacology 186(1):122-132, Berl, 2006; Carvalho, M. C., et al., Braz. Med. Biol. Res. 38(12):1857-66, 2005; and Langen, B., et al., J. Pharmacol. Exp. Ther. 314:717-724, 2005. Alprazolam, a known anxiety drug, was also included in the study. Sixty male, 6-10 week old experimentally naïve rats obtained from the Charles River laboratories were divided into six groups of ten animals each. All animals were maintained in compliance with the standards of the National Research Council and were fed certified rodent diet (Teklad, Madison, Wis.) and water ad libitum. The animals were housed in a dedicated study room with 12 hour light/12 hour dark at RT 18 to 26° C. and 30-70% humidity. Study animals were acclimated to their housing for at least 5 days prior to the first day of dosing. Routes of administration included intracerebroventricular (ICV), intraperitoneal (IP), or intramuscular (IM).
For the anxiolytic study, all groups were dosed by injection with formulations that contained the appropriate API in 0.9% saline solution. Alprazolam was an oral solution dosage form and diluted to the desired concentration in 0.9% saline for the anxiolytic study, Alprazolam Intensol™ Oral Solution (Concentrate) 1 mg/ml (each ml contains 1 mg Alprazolam).
The dosing preparations were administered once to each rat as a bolus. In the ICV administration group, test doses were administered into the lateral ventricle through a port in the already implanted ICV cannula. Testing was conducted 20 minutes after ICV and 30 minutes after IM and IP. The animals were tested for 15 minutes on the maze immediately following transport from the home cage.
The elevated plus maze consisted of a platform with 4 arms, two open and two closed (50×10×50 cm enclosed with an open roof). Rats were tested two at a time and placed by hand in the center of the platform of two separate mazes, at the crossroad of the 4 arms, facing one of the open arms. After fifteen minutes, the first rat was left for a few seconds until the second rat's fifteen minutes was completed. The rats were monitored remotely.
Prior to each rat's test, the plus-maze surfaces and closed sides were cleaned. Rats were handled by gloved hands. The time from removal from the home cage to start of testing was less than 15 seconds. Rats were gently removed from the home cage and placed onto the center square between the open and closed arms, and facing the opposite open arm. The rats were facing away from the experimenter. The experimenter moved away from the maze to an area not visible to the rat(s) and viewed the rat(s) via television monitor. At the end of the test the recorder was stopped and the rat(s) removed from the maze.
The rats were evaluated for time spent in open arm exploration (Open Time), time spent in closed arm exploration (Closed Time) and scored for anxiety according to the percent of time spent in open arm exploration ([time spent in open arms/time spent in open arms+time spent in closed arms×100]) (Open Time %); the absolute time spent in open arm exploration; and the percent of open arm entries ([number of open arm entries/number of open arm entries+number of closed arm entries]×100). The number of total arm entries was used as a measure of overall locomotor activity. The scores were compared to the vehicle controls and to the baseline using one-way ANOVA followed by the appropriate post-hoc test (Bonferroni/Dunnets) and a p<0.05 was considered to be statistically significant.

[1] = human, in vivo, inhaled or intranasal, 150 ug
Method: (§2) In this second clinical trial, three concentrations of carbetocin were manufactured based on the formulation disclosed in Table 38 in order to provide a carbetocin dose of 150 μg, 250 μg, and 400 μg. Blood samples for PK analysis of carbetocin and oxytocin levels were collected in EDTA coated blood collection tubes from patients. Aprotinin was immediately added and the samples were centrifuged to obtain plasma samples. Intranasal (IN) formulation of carbetocin were dosed using a 100 μl actuator in 12 healthy, human subjects at three strengths (1.5, 2.5, and 4.0 mg/ml) and compared to intramuscular (IM) dose of Duratocin® (Carbetocin Injection). An additional comparison to the commercially available version of intranasal oxytocin (Syntocinon Spray®) was also conducted. Blood samples were taken periodically between t=0 (predose) and 6 hrs.

in vivo = settings: rabbit, inhaled or intranasal, 60 ug
Method: In this Example, eight groups of rabbits were dosed with the formulations presented in Table 34; group 1 received intramuscular (IM) carbetocin injection at 30 μg dose, while the remaining 7 groups received the 60 μg doses of intranasal (IN) carbetocin nasal spray formulations.
Briefly, in this rabbit PK study 3, Group 1 represents a control intramuscular injection; Group 2 represents a formulation used for our first human clinical study. […] In context with formulation #5, the design of this experiment is intended to further confirm the effect of CMC-LV on BA.
For this experiment, 25 ml of each intranasal (IN) formulation was prepared. All IN formulations were stored in 3×1 ml aliquots in 1cc amber glass bottles. Also, 400 ml of the intramuscular (IM) formulation was prepared and stored in 3×3 mL aliquots in 3 cc clear glass bottles. All formulations were stored at 2-8° C.

clinical [2] = settings: human, in vivo; for AUC(0-t) / Tmax: inhaled or intranasal
Method: In this human clinical study (cross-over, dose escalating), the intranasal (IN) formulation of carbetocin was administered (a single dose) to 12 healthy human subjects (18-65 years old) at three strengths (150, 300, and 500 μg per dose) and compared to the 50 μg dose of Duratocin® administered by intramuscular injection (IM). Blood samples were taken periodically between t=0 (predose) and 6 hrs after dosing.

clinical [3] = settings: human, in vivo; for Cmax / Tmax / AUC(0-t): inhaled or intranasal
Method: as §2

[4] = in vivo; cited from earlier work
[5] = system: tracheal/bronchial epithelial cell membrane inserts (EpiAirway); experiment: Transepithelial electrical resistance (TER); type: cell-based; settings: Rabbit Pharmacokinetic Study 3 formulations
Method: Tracheal/bronchial epithelial cell membrane inserts (EpiAirway, MatTek Corp., Ashland, Mass.) were received the day before the experiment. Each tissue insert was placed in a well of a 6 well plate which contained 0.9 ml of serum free media and cultured at 37° C. for 24 hours to allow the tissues to equilibrate. The day of the experiment, transepithelial electrical resistance measurements were taken for each insert using a Tissue Resistance Measurement Chamber connected to an Epithelial Voltohmeter (World Precision Instruments, Inc., Sarasota, Fla.).
(§1) 200 μl of fresh media was gently added to each tissue insert in the 24 well plate and the plate was placed no a shaker table at room temperature for 5 minutes. 150 μl of apical solution was removed from each insert and reserved for a […] dehydrogenase assay. The inserts were then washed with 300 μl of media; 300 μl of new media was added to each insert, the inserts were incubated for 20 minutes at room temperature and the transepithelial electrical resistance was measured.

[6] = system: tracheal/bronchial epithelial cell membrane inserts (EpiAirway); experiment: Cell viability, MTT assay; type: cell-based; settings: Rabbit Pharmacokinetic Study 3 formulations
Method: Cell viability was assessed using an MTT assay kit (MatTek Corp., Ashland, Mass.). MTT concentrate was thawed and diluted with media at a ratio of 2 ml MTT:8 ml media. 300 μl MTT-media mix was added to each well of a 24 well plate. Tissue culture inserts were drained and transferred to the MTT containing well and incubated at 37° C. in the dark for three hours. After incubation, each insert was removed from the plate, and then immersed in the wells of a fresh 24-well plate containing 2 ml extractant solution. The plate was then covered and incubated overnight at room temperature in the dark. The liquid in each insert was then decanted back into the well from which it was taken and the insert was discarded. 50 μl of the exractant solution from each well was then pipetted in triplicate into a 96 well plate and diluted with the addition of 150 μl of fresh extractant solution. The optical density of the samples was then measured at 550 nm on a Spectramax plate reader (Molecular Devices, Sunnyvale, Calif.) using SpectraPro software.

[7] = system: tracheal/bronchial epithelial cell membrane inserts (EpiAirway); experiment: Cytotoxicity, LDH assay (apical and basolateral); type: cell-based; settings: Rabbit Pharmacokinetic Study 3 formulations
Method: as §1
The inserts are then transferred into a new 24 well plate containing no media and the appropriate amount of media was added to the apical surface in order to total 300 μl. The inserts were then shaken for five minutes at 100 RPM at room temperature. 50-100 μl of the apical media were then removed, placed in […] and kept at 2-8° C. until needed.
The samples were then centrifuged at 1000 rpm for 5 minutes. 2 μl of the supernatant was removed and added to a 96 well plate. 48 μl of media was then used to dilute the supernatant to make a 25× dilution and each sample was assayed in triplicate for LDH loss using a CytoTox 96 Cytotoixcity Assay Kit (Promega Corp., Madison, Wis.).
For analysis of the basolateral media, 50 μl of the reserved 150 μl solution was loaded into a 96 well assay plate and assayed in triplicate.

[8] = IP route, tested 30 minutes after dosing
[9] = ICV route, tested 20 minutes after dosing
[10] = IM route, tested 30 minutes after dosing

## Cc1nnc2n1-c1ccc(Cl)cc1C(c1ccccc1)=NC2 [Alprazolam]
rats; [8]
  Closed Time: 116.55
  Open Time: 46.07
  Open Time (%): 27.9%

## CC[C@H](C)[C@@H]1NC(=O)[C@H](Cc2ccc(OC)cc2)NC(=O)CCCSC[C@@H](C(=O)N2CCC[C@H]2C(=O)N[C@@H](CC(C)C)C(=O)NCC(N)=O)NC(=O)[C@H](CC(N)=O)NC(=O)[C@H](CCC(N)=O)NC1=O [carbetocin, 1-butanoic acid-2-(O-methyl-L-tyrosine)-1-carbaoxytocin] (Y(Me)IQNCPLG-NH2; linker N-5 via X1 (inferred))
[1]
  AUClast: 13697 (121) min*pg/ml
In vivo
  F rel: ~9%
Clinical [2]; 150 ug
  Cmax: 0.32 ng/mL
  half-life: 33 min
  AUC(0-t): 0.2 ng·h/mL
Clinical [2]; 300 ug
  Cmax: 0.43 ng/mL
  half-life: 46 min
  AUC(0-t): 0.25 ng·h/mL
  Tmax: 10 min
Clinical [2]; 500 ug
  Cmax: 0.74 ng/mL
  half-life: 42 min
  AUC(0-t): 0.717 ng·h/mL
  Tmax: 18.6 min
Clinical [2]; im, Bioavailability
  bioavailability: 6%
Clinical [3]; 150 ug
  bioavailability: 7%
  Cmax: 0.222 ng/mL
  Tmax: 15 min
Clinical [3]; 250 ug
  bioavailability: 6%
  AUC(0-t): 0.302 ng·h/mL
  Cmax: 0.377 ng/mL
  Tmax: 18 min
Clinical [3]; 400 ug
  bioavailability: 7%
  AUC(0-t): 0.542 ng·h/mL
  Cmax: 0.608 ng/mL
  Tmax: 13 min
[4]
  half-life relative to that of oxytocin: 4-10 times

## Triton
[5]; T = 0
  TER T = 0: 504.4 ohm × cm^2
[5]; T = 60 min
  TER T = 60 min: 0.2 ohm × cm^2
[6]
  MTT %: 1.4%
[7]; apical
  Apical LDII %: 100.0%
[7]; basolateral
  Basolateral LDH %: 100.0%

## CC[C@H](C)[C@@H]1NC(=O)[C@H](Cc2ccc(O)cc2)NC(=O)[C@@H](N)CSSC[C@@H](C(=O)N2CCC[C@H]2C(=O)N[C@@H](CC(C)C)C(=O)NCC(N)=O)NC(=O)[C@H](CC(N)=O)NC(=O)[C@H](CCC(N)=O)NC1=O [Oxytocin]
rats; [9]
  Closed Time: 158.42
  Open Time: 17.89
  Open Time (%): 11.3%
rats; [10]
  Closed Time: 159.47
  Open Time: 14.54
  Open Time (%): 8.6%
